In patent publication US4347319A, “Microbiological epoxidation process” (priority 1980, dated 1982):
Read-outs that look alike come from different tables or passages of the source.

Legend:
[1] = tested on: Methylocystis parvus CRL 18 NRRL B-11,204; test: Sec. alcohol oxidation by cell suspensions of methanol-grown cells; format: cell-based; details: sec. alcohol to methyl ketone
[2] = tested on: Methylobacterium organophilum CRL 26 NRRL B-11,222; test: as above; format: cell-based; details: sec. alcohol to methyl ketone
[3] = tested on: Methylomonas streptobacterium CRL 17 PM3 NRRL B-11,208; test: as above; format: cell-based; details: sec. alcohol to methyl ketone
[4] = tested on: Methylosinus trichosporium CRL 15 NRRL B-11,202; test: as above; format: cell-based; details: sec. alcohol to methyl ketone
[5] = tested on: Methylobacter bovis CRL 19 NRRL B-11,217; test: as above; format: cell-based; details: sec. alcohol to methyl ketone
[6] = tested on: Methylobacter vinelandii CRL M5Y NRRL B-11,218; test: as above; format: cell-based; details: sec. alcohol to methyl ketone
[7] = tested on: cell extract of Pichia sp. NRRL-Y-11,328; test: Oxidation of secondary alcohols to methylketone by cell extracts of yeasts; format: biochemical; details: methanol-grown; cell extract + NAD^+; sec. alcohol to methyl ketone; gas chromatography
[8] = tested on: cell extract of Hansenula polymorpha ATCC 26,012; test: as above; format: biochemical
[9] = tested on: cell-free soluble extract of Pseudomonas sp. CRL 75 ATCC 21439; details: growth substrate CH3 OH; NAD added
Procedure: To prepare the cell-free secondary alcohol dehydrogenous (SADH) system, the washed cells were disrupted with a Wave Energy Ultrasonic Oscillator, Model W201 (Wave Energy System, Inc., Newtown, Pa.) and centrifuged at 20,000×g. for 30 minutes. The clear supernatant contained the SADH activity. The enzyme activity was measured with a fluorescence spectrophotometer (Perkin Elmer, Model MPF 44A) by following the formation of reduced NAD (EX 340 nm, Em 460 nm). The formation of reduced NAD was also followed with an absorption spectrophotometer at 340 nm. The assay system (3 ml.) contained: potassium phosphate buffer pH 7.0; 150 μmol.; NAD 1 μmol.; a given amount of enzyme preparation; and secondary alcohol 10 μmol. The reaction was started by the addition of substrate. One unit of enzyme activity represents the reduction of one μmole NAD per minute. Protein concentrations were determined by the Lowry method as referenced above.

[10] = tested on: cell-free soluble extract of Methylococcus capsulatus CRL M1 (NRRL B-11,219); details: NAD added
Procedure: (§1) To prepare the cell-free secondary alcohol dehydrogenous (SADH) system, the washed cells were disrupted with a Wave Energy Ultrasonic Oscillator, Model W201 (Wave Energy System, Inc., Newtown, Pa.) and centrifuged at 20,000×g. for 30 minutes. […] The enzyme activity was measured with a fluorescence spectrophotometer (Perkin Elmer, Model MPF 44A) by following the formation of reduced NAD (EX 340 nm, Em 460 nm). The formation of reduced NAD was also followed with an absorption spectrophotometer at 340 nm. The assay system (3 ml.) contained: potassium phosphate buffer pH 7.0; 150 μmol.; NAD 1 μmol.; a given amount of enzyme preparation; and secondary alcohol 10 μmol. The reaction was started by the addition of substrate. One unit of enzyme activity represents the reduction of one μmole NAD per minute. Protein concentrations were determined by the Lowry method as referenced above.
(§2) The experimental procedure for the tests reported in Table XVII were as follows: 1 mg protein of crude extract was added into a 0.5 ml. 0.05 M phosphate buffer (pH 7.0) in a 10-ml. vial. […] The reaction mixture was incubated at 30° C. on a water bath. A 3 μl sample was removed with a syringe at 15 min. of incubation and was assayed with g.l.c. Catalytic activity was also assayed by fluorescence spectrophotometry.

[11] = tested on: cell-free soluble extract of Methylosinus trichosporium OB3b (NRRL B-11,196); details: NAD added
Procedure: as §1, §2

[12] = tested on: cell-free soluble extract of Methylobacterium organophilium CRL 26 (NRRL B 11,222); details: NAD added
Procedure: as §1, §2

[13] = tested on: methane-grown strain Methylococcus capsulatus NRRL B-11,219; test: Effect of methane on the epoxidation of propylene by a cell suspension; format: cell-based; details: in the presence of methane
Description: Both the epoxidation of the C2 -C4 1-alkenes and the hydroxylation of methane with the cell suspensions were inhibited by various metal-binding and metal-chelating agents, indicating the involvement of metal(s)-containing enzyme system(s). […] The epoxidation of propylene to propylene oxide by a cell suspension of methane-grown strain Methylococcus capsulatus NRRL B-11,219 was inhibited (50%) in the presence of the hydroxylation substrate, methane (Table XV). […] It is likely that the methane mono-oxygenase enzyme system catalyzes both the epoxidation of alkene and the hydroxylation of methane. May and Abbott publications, supra, have reported that the ω-hydroxylation system from Pseudomonas oleovorans catalyzed both the epoxidation of 1-octene and the hydroxylation of n-octane.

[14] = tested on: Methylocystis parvus (CRL 18 PM4) NRRL B-11,204; test: Oxidation by washed cell suspensions of methane-grown cells; format: cell-based; details: methane-grown washed cells, 30° C.; methane to methanol, alkene to 1,2-epoxide
In short: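 Methane/air (1:1)-grown cells, 30 °C, 2 d; harvested, washed 2× in 0.15 M phosphate pH 7.0 + 0.002 M MgCl2. 2 mg cells/vial, gas phase substrate:O2 1:1 v/v, 30 °C, 300 rpm. GC-FID read-out over time.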

CCC(C)O (stereo not drawn) [2-Butanol]
Conversion Rates [1]: 1.0 μmoles/hr/mg protein
Conversion Rates [2]: 2.5 μmoles/hr/mg protein
Conversion Rates [3]: 2.0 μmoles/hr/mg protein
Conversion Rates [4]: 4.5 μmoles/hr/mg protein
Conversion Rates [5]: 1.8 μmoles/hr/mg protein
Conversion Rates [6]: 2.0 μmoles/hr/mg protein
Conversion Rate [7]: 6.2 μmoles/hr/mg Protein
specific activities ([8]; 2-butanol as a substrate, spectrophotometrically): 85 nmoles NAD^+ reduced per min. per mg. protein
Conversion Rate ([8]; methanol-grown, cell extract + NAD^+, sec. alcohol to methyl ketone, gas chromatography): 5.2 μmoles/hr/mg Protein
Conversion Rate 2-butanol to 2-butanone [9]: 25.0 nmoles/min/mg protein
Conversion Rate 2-butanol to 2-butanone ([10]; growth substrate CH3 OH): 2.0 nmoles/min/mg protein
Conversion Rate 2-butanol to 2-butanone ([10]; growth substrate CH4): 3.2 nmoles/min/mg protein
Conversion Rate 2-butanol to 2-butanone ([11]; growth substrate CH3 OH): 2.4 nmoles/min/mg protein
Conversion Rate 2-butanol to 2-butanone ([11]; growth substrate CH4): 4.5 nmoles/min/mg protein
Conversion Rate 2-butanol to 2-butanone ([12]; growth substrate CH3 OH): 2.5 nmoles/min/mg protein
Conversion Rate 2-butanol to 2-butanone ([12]; growth substrate CH4): 1.8 nmoles/min/mg protein

C [Methane]
inhibition of the epoxidation of propylene to propylene oxide [13]: 50%

C=CC [Propylene]
Oxidative Conversion Rates [14]: 1.5 μmole/hr/mg protein
